{"source": "patent US7205008B2", "about": "“Methods of treating Alzheimer's disease and other amyloidoses using Hypericum perforatum and derivatives thereof” (ProteoTech, Inc., priority 2000, dated 2007)", "origin": "cited, not measured here"}
{"smiles": "Cc1cc(O)c2c(=O)c3c(O)cc(O)c4c5c(O)cc(O)c6c(=O)c7c(O)cc(C)c8c1c2c(c34)c(c78)c65", "note": "[hypericin]", "values": [{"measurement": "fraction of hypericin absorbed", "setting": "after swallowing a pill of Hypericum perforatum, estimated", "value": "about 20%"}, {"measurement": "time it lasts in the bloodstream", "setting": "dose of 0.75 mg of hypericin", "value": "more than a day"}]}
